As usually defined, the IC50 is the point on the concentration scale where inhibition reaches its midpoint. As a reminder, the Cmax is the maximum level reached in the sampled fluid or tissue. In general, clearance refers to the rate of elimination divided by the concentration. For orientation: inhibition in vivo means the percentage by which the read-out fell short of the control. What is called half-life is the time needed for the level to fall by half in the phase considered.

Data on 25 compounds can be found in ChEMBL document CHEMBL1140560, “Potent, selective spiropyrrolidine pyrimidinetrione inhibitors of MMP-13” (Bioorg Med Chem Lett, 2007).

“And” between values parts separate entries of the source, which are not always exact repeats. Identical values can stand only once. A value given as a limit tells only on which side of the number the result lay.

In data set [1] the target is T1, Collagenase 3 (Homo sapiens, UniProt P45452). Description: Inhibition of MMP13.
A short description of data set [2]: Volume of distribution at steady state in rat. In kind it is ADME, organism-based. The conditions noted are these: in vivo, read-out: Vdss.
Data set [3] can be described thus: Cmax in rat at 800 mg/kg, bid. In kind it is ADME, organism-based. The arrangement: dose 800 mg/kg. The conditions noted are these: in vivo.
In data set [4] the test system is Rattus norvegicus. Description: Toxicity in rat assessed as induction of fibroplasia at 100 mg/kg, bid. The conditions noted are these: in vivo. The arrangement: dose 100 mg/kg. In kind it is organism-based.
The test system of data set [5] is Rattus norvegicus. The data set can be described thus: Toxicity in rat assessed as induction of fibroplasia at 800 mg/kg, bid. It counts as organism-based. The arrangement: dose 800 mg/kg. The conditions noted are these: in vivo.
For data set [6], the target named is T1, Collagenase 3. The data set can be described thus: Inhibition of MMP13-mediated bovine nasal cartilage degradation assessed as hydroxyprole release. It counts as functional, tissue-based.
In data set [7] the test system is Rattus norvegicus. The data set can be described thus: Toxicity in rat assessed as induction of fibroplasia at 300 mg/kg, bid. In kind it is organism-based. The arrangement: dose 300 mg/kg. As to conditions: in vivo.
The nature of data set [8]: Cmax in rat at 300 mg/kg, bid. It counts as ADME, organism-based. Further details: dose 300 mg/kg. The conditions noted are these: in vivo.
Data set [9] is described as follows: plasma Clearance in rat. It counts as ADME, organism-based.
Data set [10] has as its system Rattus norvegicus. The data set can be described thus: Toxicity in rat assessed as induction of fibroplasia at 30 mg/kg, bid. As to conditions: in vivo. Further details: dose 30 mg/kg. It counts as organism-based.
The subject of another data set is Hamster. The data set can be described thus: Inhibition of human MMP13-induced cartilage damage in hamster at 10 mg/kg, po. In kind it is functional. As to conditions: Cricetinae.
Data set [11] is described as follows: Half life in rat. It counts as ADME, organism-based. As to conditions: in vivo.
The nature of data set [12]: Chemical stability assessed as half life in phosphate buffer saline at pH 7.2. It counts as physicochemical. The conditions noted are these: phosphate buffered saline.

On Collagenase 3 [1], `O=C1NC(=O)C2(CCCN2c2ccc(Oc3ccc(-c4nc5ccc(F)cc5[nH]4)cc3)nc2)C(=O)N1` showed an IC50 of 0.08 nM. Still for that read-out and setting: the value for `O=C1NC(=O)C2(CCCN2c2ccc(Oc3ccc(-c4nc(-c5cccc(F)c5)co4)cc3)nc2)C(=O)N1` was 0.09 nM; that for `O=C1NC(=O)C2(CCCN2c2ccc(Oc3ccc(-c4nc5ccccc5[nH]4)cc3)nc2)C(=O)N1` was 0.11 nM. `O=C1NC(=O)C2(CCCN2c2ccc(Oc3ccc(-c4nc(-c5ccc(F)cc5)co4)cc3)nc2)C(=O)N1`: the Vd in [2] is 1.3 L/kg. In addition, the figures for the Cmax in [3] and in [8] were 52 µg/mL and 63 µg/mL, respectively. Moreover, the Activity result in the data set on Rattus norvegicus [4] is given as “Non-toxic”; with Rattus norvegicus [5], “Toxic”; in the data set on Rattus norvegicus [7], “Toxic”; in the data set on Rattus norvegicus [10], “Non-toxic”. Further, the IC50 at Collagenase 3 [6] amounted to 12 nM; against Collagenase 3 [1], 0.12 nM. The compound further displayed a clearance in data set [9] of 3.9 mL/min/kg. The inhibition in vivo at 10 mg/kg with Hamster was more than 80%. For the same compound, the half-life in data set [11] is 270 min. With `O=C1NC(=O)C2(CCCN2c2ccc(Oc3ccc(F)cc3)nc2)C(=O)N1`, the half-maximal inhibitory concentration (IC50) against Collagenase 3 [1] is 1.6 nM and 1.57 nM. Still for that read-out and setting: the result for `O=C1NC(=O)C2(CCCC(=O)N2c2ccc(Oc3ccc(F)cc3)nc2)C(=O)N1` reads 11.7 nM. The same measure, in the same setting: the value for `N#Cc1cccc(-c2coc(-c3ccc(Oc4ccc(N5CCCC56C(=O)NC(=O)NC6=O)cn4)cc3)n2)c1` was 0.11 nM.

`CCOCCC1(Oc2ccc(Oc3ccc(-c4nc5ccc(Cl)cc5[nH]4)cc3)cc2)C(=O)NC(=O)NC1=O` returned a half-inhibitory concentration (IC50) against Collagenase 3 [1] of 0.96 nM. Still for that read-out and setting: the result for `O=C1NC(=O)C2(CCCN2c2ccc(Oc3ccc(-c4nc5ccc(Cl)cc5[nH]4)cc3)nc2)C(=O)N1` reads 0.1 nM; that for `CCOCCC1(Nc2ccc(Oc3ccc(F)cc3)nc2)C(=O)NC(=O)NC1=O`, 2.9 nM. Still for that read-out and setting: the value for `O=C1NC(=O)C2(CCCN2c2ccc(Oc3ccc(-c4nc(-c5ccccc5F)co4)cc3)nc2)C(=O)N1` was 0.16 nM. Turning to `O=C1NC(=O)C2(CCC(=O)N2c2ccc(Oc3ccc(F)cc3)nc2)C(=O)N1`, the half-life in data set [12] is 3.8 days. On Collagenase 3 [1], this compound showed an IC50 of 3.49 nM.

As for `CCOCCC1(Oc2ccc(Oc3ccc(-c4nc(-c5cccc(C#N)c5)co4)cc3)cc2)C(=O)NC(=O)NC1=O`, the concentration for half-maximal inhibition (IC50) on Collagenase 3 [1] worked out at 0.52 nM. `CCOCCC1(Oc2ccc(Oc3ccc(F)cc3)nc2)C(=O)NC(=O)NC1=O` came in with an IC50 against Collagenase 3 [1] of 8.9 nM. Same read-out and setting: the result for `N#Cc1ccc(-c2coc(-c3ccc(Oc4ccc(N5CCCC56C(=O)NC(=O)NC6=O)cn4)cc3)n2)cc1` reads 0.05 nM.

`O=C1NC(=O)C2(CCCN2c2ccc(Oc3ccc(Br)cc3)nc2)C(=O)N1`: the half-life in data set [12] is more than 1000 days. The compound further had a half-inhibitory concentration (IC50) on Collagenase 3 [1] of 0.6 nM. Consider `CCOCCC1(Oc2ccc(Oc3ccc(-c4nc(-c5cccc(F)c5)co4)cc3)cc2)C(=O)NC(=O)NC1=O`, for which the midpoint of inhibition against Collagenase 3 [1], the IC50, lay at 0.35 nM.

For `CCOCCC1(Oc2ccc(Oc3ccc(-c4nc(-c5ccc(C#N)cc5)co4)cc3)cc2)C(=O)NC(=O)NC1=O`, on Collagenase 3 [1], the IC50 came to 0.43 nM. The same measure, in the same setting: the result for `CN1CC2(C(=O)NC(=O)NC2=O)N(c2ccc(Oc3ccc(F)cc3)nc2)C1=O` reads 12 nM; that for `CCOCCC1(Oc2ccc(Oc3ccc(F)cc3)cc2)C(=O)NC(=O)NC1=O`, 0.6 nM. `CC1(C)CC2(C(=O)NC(=O)NC2=O)N(c2ccc(Oc3ccc(F)cc3)nc2)C1=O`: the half-life in [12] is 2.8 days. The compound further gave an IC50 at Collagenase 3 [1] of 7.33 nM. The matching figures for `O=C1NC(=O)C2(CCS(=O)(=O)N2c2ccc(Oc3ccc(F)cc3)nc2)C(=O)N1`: 1.1 days and 138 nM.

On Collagenase 3 [1], `CCOCCC1(Oc2ccc(Oc3ccc(-c4nc5ccc(F)cc5[nH]4)cc3)cc2)C(=O)NC(=O)NC1=O` displayed an IC50 of 0.4 nM. In the case of `CCOCCC1(Oc2ccc(Oc3ccc(-c4nc5ccccc5[nH]4)cc3)cc2)C(=O)NC(=O)NC1=O`, the 50% inhibitory concentration (IC50) against Collagenase 3 [1] turned out to be 0.49 nM. On the same count and under the same terms, the value for `O=C1NC(=O)C2(CNC(=O)N2c2ccc(Oc3ccc(F)cc3)nc2)C(=O)N1` was 15.1 nM.
